Each compound was assayed against GABA-A receptor; anion channel (assay: Displacement of [3H]flunitrazapam from GABA-A central benzodiazepine receptor of guinea pig cerebellum). Details: not given.
Type: tissue-based, Cavia porcellus
Work on N#Cc1ccc2c(c1)ncn2-c1ccc2[nH]cc(C[C@H]3CCCN3CC3CC3)c2c1 yielded an IC50 of 27 nM.

The compounds below were run against GABA-A receptor; anion channel (Homo sapiens) (UniProt P14867+P47870+P18507+P28472+P48169+Q99928+Q9UN88+P34903+O00591+O14764+Q8N1C3+P18505+P78334+P47869+P31644+Q16445) (assay: Inhibition of [3H]flunitrazapam binding to GABA-A central benzodiazepine receptor of guinea pig cerebellum at 10 uM). Details: Cavia porcellus, target entry is the homologue from another species.
Type: tissue-based
With CN1CCC[C@@H]1Cc1c[nH]c2ccc(-n3ccc4cc(C#N)ccc43)cc12 the inhibition was 37%. Compound CN1CCC(c2c[nH]c3ccc(-n4ccc5cc(C#N)ccc54)cc23)C1 (centres undefined) has an inhibition of 34%.

Each compound was assayed against GABA-A receptor; anion channel (assay: Binding affinity to the benzodiazepine receptor assayed using 0.5 nM [3H]flunitrazapam as radioligand in guinea pig cerebellum). Details: not given.
Type: tissue-based, Cavia porcellus
With CN1CCC[C@H]1Cc1c[nH]c2ccc(-n3cnc4cc(C#N)ccc43)cc12 the IC50 was 1.8 nM. For Cc1ccnc2c1ncn2-c1ccc2[nH]cc(C[C@H]3CCCN3C)c2c1, the IC50 was 12 nM. CN1CCC(c2c[nH]c3ccc(-n4cnc5cc(C#N)ccc54)cc23)C1 (centres undefined) gave an IC50 of 2.2 nM. Compound Cc1ccc2c(c1)ncn2-c1ccc2[nH]ccc2c1 has an IC50 of 0.79 nM. Compound CN1CCC[C@@H]1Cc1c[nH]c2ccc(-n3cnc4ccccc43)cc12 has an IC50 of 16 nM. Work on CN1CCC[C@@H]1Cc1c[nH]c2ccc(-n3ccc4cc(C#N)ccc43)cc12 yielded an IC50 of over 1000 nM. Cc1ccc2c(c1)ncn2-c1ccc2[nH]cc(C3CCNCC3)c2c1 showed an IC50 of 0.49 nM. For CN1CCC[C@@H]1Cc1c[nH]c2ccc(-n3cnc4cc(CN)ccc43)cc12, the IC50 was 13 nM. In the case of COCCN1CCC(c2c[nH]c3ccc(-n4cnc5cc(C#N)ccc54)cc23)CC1, the IC50 is reported as 0.6 nM. For COCCN1CCC[C@@H]1Cc1c[nH]c2ccc(-n3cnc4cc(C#N)ccc43)cc12, the IC50 was 24 nM. Work on CN1CCC[C@@H]1Cc1c[nH]c2ccc(-n3cnc4cc(C#N)ccc43)cc12 yielded an IC50 of 2.8 nM. CN1CCC[C@@H]1Cc1c[nH]c2ccc(-n3cnc4cc(NC(Cc5c[nH]c6ccccc56)C(=O)NC(=O)OCc5ccccc5)ccc43)cc12 (some centres undefined) showed an IC50 of 33 nM. CN1CCC[C@@H]1Cc1c[nH]c2ccc(-n3cnc4cc(Cl)ccc43)cc12 showed an IC50 of 1.1 nM. With Cc1ccc2c(c1)ncn2-c1ccc2[nH]cc(C3=CCN(C(=O)OC(C)(C)C)CC3)c2c1 the IC50 was 31 nM. N#Cc1ccc2c(c1)ncn2-c1ccc2[nH]cc(C3=CCNCC3)c2c1 was tested, and the IC50 was 0.46 nM. For N#Cc1ccc2c(c1)ncn2-c1ccc2[nH]cc(C3CCNCC3)c2c1, the IC50 was 0.24 nM. Compound N#Cc1ccc2c(c1)ncn2-c1ccc2[nH]cc(C=O)c2c1 has an IC50 of 19 nM. c1cnc2c(c1)ncn2-c1ccc2[nH]cc(C[C@H]3CCCN3)c2c1 was tested, and the IC50 was 110 nM. CN1CCC[C@@H]1Cc1c[nH]c2ccc(-n3cnc4cc(C#N)cnc43)cc12 was tested, and the IC50 was 9.8 nM. CN1CCC[C@@H]1Cc1c[nH]c2ccc(-n3cnc4cccnc43)cc12 was tested, and the IC50 was 27 nM. CN1CCC[C@@H]1Cc1c[nH]c2ccc(Nc3ncccc3[N+](=O)[O-])cc12 gave an IC50 of 9600 nM. For O=Cc1c[nH]c2ccc(-n3cnc4cccnc43)cc12, the IC50 was 209 nM. Work on Cc1ccc2c(c1)ncn2-c1ccc2[nH]cc(C[C@H]3CCCN3C)c2c1 yielded an IC50 of 0.16 nM. Work on N#Cc1ccc2c(c1)ncn2-c1ccc2[nH]ccc2c1 yielded an IC50 of 18 nM. In the case of COCCN1CCC[C@@H]1Cc1c[nH]c2ccc(-n3cnc4cc(NC(=O)Nc5ccccc5)ccc43)cc12, the IC50 is reported as 17 nM. COCCN1CCC[C@@H]1Cc1c[nH]c2ccc(-n3cnc4cc(CN)ccc43)cc12 showed an IC50 of 55 nM.

From ChEMBL document CHEMBL1128050, “The discovery of a novel and potent benzodiazepine receptor pharmacophore” (Bioorg Med Chem Lett, 1995)
